# Laboratory results: patent US20260191835A1, “COMBINATIONS COMPRISING A MENIN-MLL INHIBITOR AND AT LEAST ONE OTHER THERAPEUTIC AGENT” (JANSSEN PHARMACEUTICA NV, priority 2022, published 2026)
# Tested on: MOLM-13 cells
# Assay: In vitro proliferation (Cell Titer Glo, 6 days) of Compound 51 in combination with gilteritinib, midostaurin, idarubicin or decitabine, MOLM-13
# Type: cell-based, human
# Design: key to maxR call (synergy/antagonism), combination with Gilteritinib on MOLM-13 cell proliferation / Synergy/antagonism call (maxR test), MOLM-13 Cell Proliferation: synergy is indicated by “**”; antagonism is indicated by “*”; no asterisk: absence of any asterisk indicates an additive effect
# Method: 3) In Vitro Proliferation—Menin-MLL Inhibitor in Combination with FLT3 Inhibitor (Gilteritinib or Midostaurin), DNA Intercalating Agent (Idarubicin) or Hypomethylating Agent (Decitabine)
# The effect of Compound 51 in combination with gilteritinib, midostaurin, idarubicin or decitabine was determined in proliferation assays.
# AML cell lines MOLM-13, OCI-AML3 and MV4-11 were purchased from DSMZ. MOLM-13 were grown in RPMI medium supplemented with 10% Fetal Bovine Serum (FBS) and 1% penicillin/streptomycin. MV4-11 cells were grown in IMDM medium supplemented with 10% FBS and 1% penicillin/streptomycin. OCI-AML3 cells were cultured in 80-90% alpha-MEM (with or without ribo- and deoxyribonucleosides)+10-20% FBS. All cell lines were cultured at 37° C. in 5% CO2 atmosphere.
# AML cell lines (10-20×10^3 cells/well) were seeded in 96-well plates and grown for 6 days in serum (10%)-containing medium in the presence or absence of inhibitors at the indicated concentrations. Proliferation was analyzed by means of a Cell Titer Glo assay using the […] (Promega, Madison, WI, USA), according to the manufacturer's instructions. Data are mean with standard deviation from two to four independent experiments in technical triplicates.
# R-based Biochemically Intuitive Generalized Loewe (BIGL) model implemented with a highest single agent (HSA) null model. Specifically, the BIGL methodology was applied to calculate drug-drug interactions (Van der Borght, K., Tourny, A., Bagdziunas, R. et al. BIGL: Biochemically Intuitive Generalized Loewe null model for prediction of the expected combined effect compatible with partial agonism and antagonism. Sci Rep 7, 17935 (2017); Thas, O., Tourny, A., Verbist, B., Hawinkel, S., Nazarov, M., Mutambanengwe, K., & Bijnens, L. Statistical detection of synergy: New methods and a comparative study. Pharmaceutical Statistics (2021)).
# Synergy matrix results of the BIGL analysis of the cell line data with HSA as mean model calculated on the basis of the cellular metabolic activity using Cell Titer-Glo assay. Bootstrap confidence intervals are indicated. Effect sizes and their confidence intervals are shown. […] No significant average effect if zero is included in the interval.
# [1] = Compound 51 0.05 μm, Gilteritinib 0.01 μM
# [2] = Compound 51 0.1 μm + Decitabine 0.015 μM
# [3] = Compound 51 0.1 μm + Decitabine 0.15 μM
# [4] = Compound 51 0.1 μm + Idarubicin 0.001 μM
# [5] = Compound 51 0.1 μm + Midostaurin 0.006 μM
# [6] = Compound 51 0.1 μm + Midostaurin 0.025 μM
# [7] = Compound 51 0.1 μm, Gilteritinib 0.01 μM
# [8] = Compound 51 1 μm + Decitabine 0.15 μM
# [9] = Compound 51 1 μm + Idarubicin 0.001 μM
# [10] = Compound 51 1 μm + Midostaurin 0.006 μM
# [11] = Compound 51 1 μm + Midostaurin 0.025 μM
# [12] = Compound 51 10 μm + Decitabine 0.015 μM
# [13] = Compound 51 10 μm + Decitabine 0.15 μM
# [14] = Compound 51 10 μm, Gilteritinib 0.01 μM
# [15] = Compound 51 10 μm, Gilteritinib 0.05 μM
structure (smiles),measurement,setting,value
CC(=O)N1CCC(CN2CC[C@@H](Cc3cn(-c4ccc(F)cc4C(=O)N(C)C(C)C)c4cncc(C)c34)C2)CC1 [Compound 51],"Effect size (BIGL, HSA null model), combination with Gilteritinib on MOLM-13 cell proliferation","Compound 51 0.05 μm, Gilteritinib 0.005 μM",−0.14
same,"Effect size (BIGL, HSA null model), combination with Gilteritinib on MOLM-13 cell proliferation",[1],−0.32
same,"maxR call (synergy/antagonism), combination with Gilteritinib on MOLM-13 cell proliferation",[1],**
same,"Effect size (BIGL, HSA null model), combination with Gilteritinib on MOLM-13 cell proliferation","Compound 51 0.05 μm, Gilteritinib 0.05 μM",−0.22
same,"Effect size (BIGL, HSA null model), combination with Gilteritinib on MOLM-13 cell proliferation","Compound 51 0.05 μm, Gilteritinib 0.1 μM",−0.14
same,"Effect size (BIGL, HSA null model), combination with Gilteritinib on MOLM-13 cell proliferation","Compound 51 0.05 μm, Gilteritinib 1 μM",−0.01
same,"Effect size (BIGL, HSA null model), MOLM-13 Cell Proliferation",Compound 51 0.1 μm + Decitabine 0.0015 μM,−0.01
same,"Effect size (BIGL, HSA null model), MOLM-13 Cell Proliferation",[2],−0.33
same,"Synergy/antagonism call (maxR test), MOLM-13 Cell Proliferation",[2],**
same,"Effect size (BIGL, HSA null model), MOLM-13 Cell Proliferation",[3],−0.35
same,"Synergy/antagonism call (maxR test), MOLM-13 Cell Proliferation",[3],**
same,"Effect size (BIGL, HSA null model), MOLM-13 Cell Proliferation",Compound 51 0.1 μm + Decitabine 1.5 μM,−0.05
same,"Effect size (BIGL, HSA null model), MOLM-13 Cell Proliferation",Compound 51 0.1 μm + Decitabine 3 μM,−0.03
same,"Effect size (BIGL, HSA null model), MOLM-13 Cell Proliferation",Compound 51 0.1 μm + Idarubicin 0.0005 μM,−0.13
same,"Effect size (BIGL, HSA null model), MOLM-13 Cell Proliferation",[4],−0.42
same,"Synergy/antagonism call (maxR test), MOLM-13 Cell Proliferation",[4],**
same,"Effect size (BIGL, HSA null model), MOLM-13 Cell Proliferation",Compound 51 0.1 μm + Idarubicin 0.0025 μM,−0.23
same,"Effect size (BIGL, HSA null model), MOLM-13 Cell Proliferation",Compound 51 0.1 μm + Idarubicin 0.005 μM,−0.11
same,"Effect size (BIGL, HSA null model), MOLM-13 Cell Proliferation",Compound 51 0.1 μm + Idarubicin 0.05 μM,0.02
same,"Effect size (BIGL, HSA null model), MOLM-13 Cell Proliferation",Compound 51 0.1 μm + Idarubicin 0.5 μM,0.02
same,"Effect size (BIGL, HSA null model), MOLM-13 Cell Proliferation",Compound 51 0.1 μm + Midostaurin 0.0012 μM,−0.08
same,"Effect size (BIGL, HSA null model), MOLM-13 Cell Proliferation",[5],−0.23
same,"Synergy/antagonism call (maxR test), MOLM-13 Cell Proliferation",[5],**
same,"Effect size (BIGL, HSA null model), MOLM-13 Cell Proliferation",[6],−0.17
same,"Synergy/antagonism call (maxR test), MOLM-13 Cell Proliferation",[6],**
same,"Effect size (BIGL, HSA null model), MOLM-13 Cell Proliferation",Compound 51 0.1 μm + Midostaurin 0.05 μM,−0.08
same,"Effect size (BIGL, HSA null model), MOLM-13 Cell Proliferation",Compound 51 0.1 μm + Midostaurin 0.1 μM,−0.04
same,"Effect size (BIGL, HSA null model), MOLM-13 Cell Proliferation",Compound 51 0.1 μm + Midostaurin 0.5 μM,−0.02
same,"Effect size (BIGL, HSA null model), combination with Gilteritinib on MOLM-13 cell proliferation","Compound 51 0.1 μm, Gilteritinib 0.0005 μM",−0.03
same,"Effect size (BIGL, HSA null model), combination with Gilteritinib on MOLM-13 cell proliferation","Compound 51 0.1 μm, Gilteritinib 0.005 μM",−0.13
same,"Effect size (BIGL, HSA null model), combination with Gilteritinib on MOLM-13 cell proliferation",[7],−0.3
same,"maxR call (synergy/antagonism), combination with Gilteritinib on MOLM-13 cell proliferation",[7],**
same,"Effect size (BIGL, HSA null model), combination with Gilteritinib on MOLM-13 cell proliferation","Compound 51 0.1 μm, Gilteritinib 0.05 μM",−0.24
same,"Effect size (BIGL, HSA null model), combination with Gilteritinib on MOLM-13 cell proliferation","Compound 51 0.1 μm, Gilteritinib 0.1 μM",−0.14
same,"Effect size (BIGL, HSA null model), combination with Gilteritinib on MOLM-13 cell proliferation","Compound 51 0.1 μm, Gilteritinib 1 μM",−0.01
same,"Effect size (BIGL, HSA null model), MOLM-13 Cell Proliferation",Compound 51 1 μm + Decitabine 0.0015 μM,0.03
same,"Effect size (BIGL, HSA null model), MOLM-13 Cell Proliferation",Compound 51 1 μm + Decitabine 0.015 μM,−0.1
same,"Effect size (BIGL, HSA null model), MOLM-13 Cell Proliferation",[8],−0.38
same,"Synergy/antagonism call (maxR test), MOLM-13 Cell Proliferation",[8],**
same,"Effect size (BIGL, HSA null model), MOLM-13 Cell Proliferation",Compound 51 1 μm + Idarubicin 0.0005 μM,−0.08
same,"Effect size (BIGL, HSA null model), MOLM-13 Cell Proliferation",[9],−0.38
same,"Synergy/antagonism call (maxR test), MOLM-13 Cell Proliferation",[9],**
same,"Effect size (BIGL, HSA null model), MOLM-13 Cell Proliferation",Compound 51 1 μm + Idarubicin 0.0025 μM,−0.24
same,"Effect size (BIGL, HSA null model), MOLM-13 Cell Proliferation",Compound 51 1 μm + Idarubicin 0.005 μM,−0.11
same,"Effect size (BIGL, HSA null model), MOLM-13 Cell Proliferation",Compound 51 1 μm + Idarubicin 0.05 μM,0.02
same,"Effect size (BIGL, HSA null model), MOLM-13 Cell Proliferation",Compound 51 1 μm + Idarubicin 0.5 μM,0.02
same,"Effect size (BIGL, HSA null model), MOLM-13 Cell Proliferation",Compound 51 1 μm + Midostaurin 0.0012 μM,−0.03
same,"Effect size (BIGL, HSA null model), MOLM-13 Cell Proliferation",[10],−0.18
same,"Synergy/antagonism call (maxR test), MOLM-13 Cell Proliferation",[10],**
same,"Effect size (BIGL, HSA null model), MOLM-13 Cell Proliferation",[11],−0.19
same,"Synergy/antagonism call (maxR test), MOLM-13 Cell Proliferation",[11],**
same,"Effect size (BIGL, HSA null model), MOLM-13 Cell Proliferation",Compound 51 1 μm + Midostaurin 0.05 μM,−0.08
same,"Effect size (BIGL, HSA null model), MOLM-13 Cell Proliferation",Compound 51 1 μm + Midostaurin 0.1 μM,−0.04
same,"Effect size (BIGL, HSA null model), MOLM-13 Cell Proliferation",Compound 51 1 μm + Midostaurin 0.5 μM,−0.02
same,"Effect size (BIGL, HSA null model), combination with Gilteritinib on MOLM-13 cell proliferation","Compound 51 1 μm, Gilteritinib 0.0005 μM",0.03
same,"Effect size (BIGL, HSA null model), combination with Gilteritinib on MOLM-13 cell proliferation","Compound 51 1 μm, Gilteritinib 0.005 μM",−0.1
same,"Effect size (BIGL, HSA null model), combination with Gilteritinib on MOLM-13 cell proliferation","Compound 51 1 μm, Gilteritinib 0.01 μM",−0.22
same,"Effect size (BIGL, HSA null model), combination with Gilteritinib on MOLM-13 cell proliferation","Compound 51 1 μm, Gilteritinib 0.05 μM",−0.25
same,"Effect size (BIGL, HSA null model), combination with Gilteritinib on MOLM-13 cell proliferation","Compound 51 1 μm, Gilteritinib 0.1 μM",−0.14
same,"Effect size (BIGL, HSA null model), combination with Gilteritinib on MOLM-13 cell proliferation","Compound 51 1 μm, Gilteritinib 1 μM",−0.01
same,"Effect size (BIGL, HSA null model), MOLM-13 Cell Proliferation",Compound 51 10 μm + Decitabine 0.0015 μM,−0.06
same,"Effect size (BIGL, HSA null model), MOLM-13 Cell Proliferation",[12],−0.16
same,"Synergy/antagonism call (maxR test), MOLM-13 Cell Proliferation",[12],**
same,"Effect size (BIGL, HSA null model), MOLM-13 Cell Proliferation",[13],−0.38
same,"Synergy/antagonism call (maxR test), MOLM-13 Cell Proliferation",[13],**
same,"Effect size (BIGL, HSA null model), MOLM-13 Cell Proliferation",Compound 51 10 μm + Decitabine 1.5 μM,−0.05
same,"Effect size (BIGL, HSA null model), MOLM-13 Cell Proliferation",Compound 51 10 μm + Decitabine 3 μM,−0.03
same,"Effect size (BIGL, HSA null model), combination with Gilteritinib on MOLM-13 cell proliferation","Compound 51 10 μm, Gilteritinib 0.0005 μM",−0.05
same,"Effect size (BIGL, HSA null model), combination with Gilteritinib on MOLM-13 cell proliferation","Compound 51 10 μm, Gilteritinib 0.005 μM",−0.17
same,"Effect size (BIGL, HSA null model), combination with Gilteritinib on MOLM-13 cell proliferation",[14],−0.26
same,"maxR call (synergy/antagonism), combination with Gilteritinib on MOLM-13 cell proliferation",[14],**
same,"Effect size (BIGL, HSA null model), combination with Gilteritinib on MOLM-13 cell proliferation",[15],−0.27
same,"maxR call (synergy/antagonism), combination with Gilteritinib on MOLM-13 cell proliferation",[15],**
same,"Effect size (BIGL, HSA null model), combination with Gilteritinib on MOLM-13 cell proliferation","Compound 51 10 μm, Gilteritinib 0.1 μM",−0.14
same,"Effect size (BIGL, HSA null model), combination with Gilteritinib on MOLM-13 cell proliferation","Compound 51 10 μm, Gilteritinib 1 μM",−0.01
same,combination effect on proliferation at low doses of Midostaurin,"in combination with Midostaurin 6 to 25 nM, MOLM-13",synergized
same,combination effect on proliferation (cytotoxicity),"in combination with decitabine, MOLM-13, 6-day CellTiter-Glo matrix",synergistically cytotoxic
same,combination effect on proliferation at low doses of gilteritinib,"in combination with gilteritinib 500 pM, MOLM-13",synergistic effect
same,combination effect on proliferation (cytotoxicity),"in combination with gilteritinib, MOLM-13, 6-day CellTiter-Glo matrix",not antagonistically cytotoxic
same,combination effect on proliferation (cytotoxicity),"in combination with idarubicin, MOLM-13, 6-day Cell Titer-Glo matrix",synergistically cytotoxic
same,combination effect on proliferation (cytotoxicity),"in combination with midostaurin, MOLM-13, 6-day CellTiter-Glo matrix",not antagonistically cytotoxic
